Values quoted from earlier work as cited in patent US11596701B2, “Disinfection method using a disinfection agent formed in situ by reaction of H2O2 and NO2-” (LEIBNIZ-INSTITUT FÜR PLASMAFORSCHUNG UND TECHNOLOGIE E.V., priority 2018, dated 2023).
Where two headings read alike, the source gives them in different places.

Details: room temperature

Substance: peroxynitric acid
- half-life (Lammel et al., 1990): about 3 minutes
- half-life (as stated in US 20170172149): about 10 minutes
